Laboratory results from patent US20240245696A1, “INHIBITORS OF DNA PK AND USES THEREOF” (BioVentures, LLC, priority 2017, published 2024).
Entries after “also recorded” stand apart in the source; their conditions may differ.

Legend:
[1] = target: DNA-PKcs (Homo sapiens, UniProt P78527); assay: Western blot of phosphorylated DNA-PKcs (s2056) in activated Jurkat cells; assay type: cell-based; design: host or cells: Jurkat cells; conditions: Jurkat activated with PMA+PHA
Description: Cell Culture: Human peripheral blood mononuclear cells (PBMC,) and Jurkat cells were purchased from ATCC (PCS-800-011, Manassas, VA). Cells were maintained at 37° C. in a humidified atmosphere composed of 5% CO2. […] Both Jurkat cells and PBMC were stimulated with PHA (50 ng/mL) and PMA (1 μg/mL) for 24 hours prior to harvesting for IL-2 detection or 6 hours prior for western blot analysis. The NU7441 DNA-PKcs inhibitor was added at varying concentrations at the time of stimulation.
Cell lysis and nuclear extract: Cells were washed with cold PBS twice and centrifuged at 5000 rpm for 5 minutes. For the nuclear extract, pellets were suspended with 800 μL of 10 mN HEPES lysis buffer (10 mM HEPES at pH 7.9, 10 mM KCl, 1 mM DTT, and 1× protease and phosphatase inhibitor) and incubated on ice for 15 minutes. 50 μL of NP-40 (10% in water) was added and the pellets were mixed for 10 seconds. Lysates were centrifuged for 5 minutes at 4° C. at 13,000 rpm. The supernatant solution which is containing the cytosolic fraction was discarded and the pellets were resuspended in 20 mM HEPES lysis buffer (20 mM HEPES at pH 7.9, 0.4 M NaCl, 1 mM DTT, and 1× protease, and phosphatase inhibitor) and incubated on ice for 15 minutes with intermittent mixing. Lysates were centrifuged for 10 minutes at 4° C. at 13,000 rpm. […]

[2] = test system: IL-2; assay: Secreted IL-2 ELISA, Jurkat cells stimulated with anti-CD28/CD3 dynabeads; assay type: cell-based, human; conditions: anti-CD28/CD3 dynabeads 1:1 ratio, 24 hours
Description: Detection of secreted IL-2: Secreted IL-2 was detected by Human IL-2 ELISA Kit from Thermo Scientific (Waltham, MA). The manufacturer's protocol was followed. Prior to harvesting, cells were treated with PHA (50 ng/ml) and PMA (1 μg/mL) for 24 hours with or without the NU7441 inhibitor. Jurkat cells stimulated with the anti-CD28/CD3 dynabeads were done so according to the manufacturer's protocol at a 1:1 ratio for 24 hours prior to harvesting. After stimulation, supernatant samples of Jurkat cells or PBMCs (2 million cells/mL) were collected and diluted 10 times before the assay. IL-2 standards and samples (50 μL) and Biotinylated antibody reagents (50 μL) were added to each well and the plate was incubated for 3 hours at room temperature. The plate was washed 3 times and 100 μL of Streptavidin-HRP solution was added. After 30 minutes of incubation at room temperature, the plate was washed 3 times. TMB substrate (100 μL) was added and incubated for 30 minutes in the dark at room temperature. Stop solution was added and the absorbance of each well was read at 450 nm using the plate reader.

[3] = test system: IL-2; assay: qPCR of IL-2 expression in stimulated Jurkat cells; assay type: cell-based, human; conditions: PHA+PMA stimulation
Description: Evaluation of PD-1 and IL-2 expression: The effect of NU7441 on the expression of PD-1, a protein with immunosuppressant function, and IL-2 was examined in Jurkat cells following stimulation with PHA+PMA and treatment with the inhibitor NU7441. qPCR analysis was performed using primers specific for PD1 and IL-2 sequences.

[4] = test system: Th1 T cells; assay: qPCR on T cell markers, Th1 differentiation of naïve CD4+ T cells; assay type: cell-based; conditions: naïve CD4+ T cells from mouse spleens
Description: qPCR on T cell markers: Naïve CD4+ T cells were isolated by standard methods from the spleens of Balbc mice. T cells were grown in culture and treated with cytokines specific for differentiate into Th1 and Th17 subtypes. Additionally, T cells were cultured with NU7441 and FK506. qPCR was performed looking at the following markers: Batf3, RORyt, IL17, IL22, TGFBeta, Lymphotoxin, T-Bet.

[5] = test system: Cabin1; assay: Western blot of Cabin1 expression in activated Jurkat cells; assay type: cell-based, human; conditions: Jurkat activated with PMA+PHA
Description: (§1) Cell lysis and nuclear extract: Cells were washed with cold PBS twice and centrifuged at 5000 rpm for 5 minutes. For the nuclear extract, pellets were suspended with 800 μL of 10 mN HEPES lysis buffer (10 mM HEPES at pH 7.9, 10 mM KCl, 1 mM DTT, and 1× protease and phosphatase inhibitor) and incubated on ice for 15 minutes. 50 μL of NP-40 (10% in water) was added and the pellets were mixed for 10 seconds. Lysates were centrifuged for 5 minutes at 4° C. at 13,000 rpm. The supernatant solution which is containing the cytosolic fraction was discarded and the pellets were resuspended in 20 mM HEPES lysis buffer (20 mM HEPES at pH 7.9, 0.4 M NaCl, 1 mM DTT, and 1× protease, and phosphatase inhibitor) and incubated on ice for 15 minutes with intermittent mixing. Lysates were centrifuged for 10 minutes at 4° C. at 13,000 rpm. The supernatant containing nuclear extract was stored at -20° C. until they were used for the Western blot analysis. For total cell lysates, cell pellets were resuspended with 100 μL of RIPA buffer (150 mM NaCl, 1% Triton X-100, 0.1% SDS, and 50 mM Tris at pH 8.0) and incubated on ice for 10 minutes. The lysates were centrifuged for 10 minutes at 4° C. at 13,000 rpm and the supernatant solutions were stored at -20° C. until they were used for the Western blot analysis. Western blot analysis: Nuclear extract lysates were separated on 3-8% Tris-Acetate gels (Invitrogen). […]

[6] = test system: PBMC; assay: Cell viability assay (CELLTITER 96 AQUEOUS One) in PBMC; assay type: cell-based, human; conditions: various concentrations, 48 hours
Description: Cell Culture: Human peripheral blood mononuclear cells (PBMC,) and Jurkat cells were purchased from ATCC (PCS-800-011, Manassas, VA). Cells were maintained at 37° C. in a humidified atmosphere composed of 5% CO2. Jurkat cells were cultured in RPMI 1640 medium which was supplemented with 10% FCS and human PBMC was cultured in RPMI 1640 medium which was supplemented with 10% FCS and pen/strep. Both Jurkat cells and PBMC were stimulated with PHA (50 ng/mL) and PMA (1 μg/mL) for 24 hours prior to harvesting for IL-2 detection or 6 hours prior for western blot analysis. The NU7441 DNA-PKcs inhibitor was added at varying concentrations at the time of stimulation. Cell viability assay: Cell viability assay was performed using Promega CELLTITER 96 AQUEOUS One Solution Cell Proliferation Assay (Madison, WI) and following the manufacturer's protocol. Briefly, 100 μL of PBMC or Jurkat cells were plated in a 96-well plate and treated with various concentration of NU7441 for 48 hours. CELLTITER solution (20 μL/100 μL of cell suspension) was added to the cells and the plate was incubated for 3 hours at 37° C. and the absorbance at 490 nm was recorded using SynergyHTX (BioTek, Winooski, VT) plate reader.

[7] = test system: CHK2; assay: Western blot of phosphorylated CHK2 (Thr68) in activated Jurkat cells; assay type: cell-based, human; conditions: Jurkat activated with PMA+PHA
Description: as §1

`O=c1cc(N2CCOCC2)oc2c(-c3cccc4c3sc3ccccc34)cccc12` [NU7441] was tested, and the “DNA-PKcs phosphorylation (s2056)” value [1] was “effectively inhibited DNA-PKcs phosphorylation”, the “DNA-PKcs phosphorylation (s2056)” value ([1]; listed as NU744) was “reduced” and the IL-2 production [2] was “significantly blocked IL-2 production; also recorded: inhibited”. For the same molecule, the IL-2 expression [3] was “reduced”, the “Th1 differentiation (markers T-Bet, Lymphotoxin)” value [4] was “promoting the expression of Th1 T cells” and the Cabin1 expression [5] was “elevated Cabin1 expression”. For the same molecule, the Cabin1 expression ([5]; listed as NU744) was “increase in Cabin1 expression”, the “cellular viability of PBMC” value [6] was “did not affect cellular viability; also recorded: does not reduce cell viability” and the “CHK2 phosphorylation at Thr68” value [7] was “reduced CHK2 phosphorylation”. For the same molecule, the “CHK2 phosphorylation at Thr68” value ([7]; listed as NU744) was “reduced”.
